From patent US20110236456A1, “IMPLANTABLE DEVICE FOR THE DELIVERY OF HISTRELIN AND METHODS OF USE THEREOF” (Endo Pharmaceuticals Solutions Inc., priority 2008, published 2011)

Experiments:
[1] = In vitro elution of histrelin from HP-60D-20 polyurethane implant (Example 1); type: physicochemical; details: HP-60D-20 implant, approx. 37° C.
Protocol: HP-60D-20 is extruded to tubes with thickness of 0.30 mm with inside diameter of 1.75 mm. The tubes are then cut into 25 mm in length. One side of the tube is sealed with heat using a heat sealer. The sealing time is less than one minute. Four pellets of histrelin acetate are loaded into the tube. Each pellet weighs approximately 13.5 mg for a total of 54 mg. Each pellet is comprised of a mixture of 98% histrelin and 2% stearic acid. The second end open of the tube is sealed with heat in the same way as for the first end. The loaded implant is then conditioned and primed. The conditioning takes place at room temperature in a 0.9% saline solution for one day. Upon completion of the conditioning, the implant undergoes priming. The priming takes place at room temperatures in a 1.8% saline solution for one day. Each implant is tested in vitro in a medium selected to mimic the pH found in the human body. The temperature of the selected medium was kept at approximately 37° C. during the testing. The release rates are shown on FIG. 4 and Table 2.

[2] = Release rates of histrelin from Tecophilic, Tecoflex and Carbothane polyurethane implants (Example 3); type: physicochemical; details: for Release rate normalized to surface area of the implant: 2% SA, 50 mg API
Excerpt: Tables 2A-C show release rates of histrelin from three different classes of polyurethane compounds (Tecophilic®, Tecoflex® and Carbothane®). The release rates have been normalized to surface area of the implant, thereby adjusting for slight differences in the size of the various implantable devices. Histrelin is very soluble in water. Typically, a Log P value of greater than about 2.0 is considered to be not readily soluble in aqueous solution. The polyurethanes were selected to have varying affinities for water soluble active agents and varying flexibility (as indicated by the variation in flex modulus). […] Polyurethanes are available or can be prepared, for example, with a range of EWCs or flex moduli (Table 2). Tables 2A-C show normalized release rates for various active ingredients from polyurethane compounds. Tables 2D-F show the non-normalized release rates for the same active ingredients, together with implant composition.

Histrelin elution rate ([1]; week 1 of elution): 451.733 µg/day
Histrelin elution rate ([1]; week 2 of elution): 582.666 µg/day
Histrelin elution rate ([1]; week 3 of elution): 395.9 µg/day
Histrelin elution rate ([1]; week 4 of elution): 310.29 µg/day
Histrelin elution rate ([1]; week 5 of elution): 264.92 µg/day
Histrelin elution rate ([1]; week 6 of elution): 247.17 µg/day
Histrelin elution rate ([1]; week 7 of elution): 215.93 µg/day
Histrelin elution rate ([1]; week 8 of elution): 201.78 µg/day
Histrelin elution rate ([1]; week 9 of elution): 183.22 µg/day
Histrelin elution rate ([1]; week 10 of elution): 174.99 µg/day
Histrelin elution rate ([1]; week 11 of elution): 167.72 µg/day
Histrelin elution rate ([1]; week 12 of elution): 158.37 µg/day
Histrelin elution rate ([1]; week 13 of elution): 153.95 µg/day
Histrelin elution rate ([1]; week 14 of elution): 146.46 µg/day
Histrelin elution rate ([1]; week 15 of elution): 139.83 µg/day
Histrelin elution rate ([1]; week 16 of elution): 129.6 µg/day
Histrelin elution rate ([1]; week 17 of elution): 124.46 µg/day
Histrelin elution rate ([1]; week 18 of elution): 118.12 µg/day
Histrelin elution rate ([1]; week 19 of elution): 120.35 µg/day
Release rate normalized to surface area of the implant ([2]; Carbothane PC-3595A, F.M.: 4,500): 0.2 μg/day/cm^2
Non-normalized release rate ([2]; Carbothane PC-3595A, F.M.: 4,500, ID 1.85 mm, wall 0.20 mm, L 25.25 mm, 1.625 cm^2): 0.4 µg/day
Release rate normalized to surface area of the implant ([2]; Tecoflex EG 100A, F.M.: 10,000): 0.3 μg/day/cm^2
Non-normalized release rate ([2]; Tecoflex EG 100A, F.M.: 10,000, ID 1.85 mm, wall 0.20 mm, L 25.56 mm, 1.645 cm^2): 0.5 µg/day
Release rate normalized to surface area of the implant ([2]; Tecophilic HP-60D-20, 15% EWC): 93 μg/day/cm^2
Non-normalized release rate ([2]; Tecophilic HP-60D-20, 15% EWC, ID 1.80 mm, wall 0.30 mm, L 24.5 mm, 1.616 cm^2): 150 µg/day
Release rate normalized to surface area of the implant ([2]; Tecophilic HP-60D-35, 24% EWC): 248 μg/day/cm^2
Non-normalized release rate ([2]; Tecophilic HP-60D-35, 24% EWC, ID 1.80 mm, wall 0.30 mm, L 24.5 mm, 1.616 cm^2): 400 µg/day
Release rate normalized to surface area of the implant ([2]; Tecophilic HP-60D-60, 31% EWC): 309 μg/day/cm^2
Non-normalized release rate ([2]; Tecophilic HP-60D-60, 31% EWC, ID 1.80 mm, wall 0.30 mm, L 24.5 mm, 1.616 cm^2): 500 µg/day
SMILES: CCNC(=O)[C@@H]1CCCN1C(=O)[C@H](CCCNC(=N)N)NC(=O)[C@H](CC(C)C)NC(=O)[C@@H](Cc1cn(Cc2ccccc2)cn1)NC(=O)[C@H](Cc1ccc(O)cc1)NC(=O)[C@H](CO)NC(=O)[C@H](Cc1c[nH]c2ccccc12)NC(=O)[C@H](Cc1cnc[nH]1)NC(=O)[C@@H]1CCC(=O)N1 [Histrelin Acetate, Histrelin acetate]
